Source: patent US12576051B2, “Methods and composition for treating respiratory obstructive diseases” (The Regents of the University of California, priority 2019, dated 2026)

Legend:
porcine airway = assay: Ex vivo porcine airway models (summary statement)
Source text: Abnormal mucus accumulation in airways has deleterious, and fatal consequence in patients suffering from respiratory obstructive diseases, such as cystic fibrosis (CF), COPD and asthma. Therefore, there is a need for therapies aimed at decreasing mucus accumulation to facilitate airway mucus clearance.

[1] = tested on: mucin released over the luminal airway surface; assay: Mucin clearance on surface airway epithelium of isolated porcine airways (histology); details: 200 μM, 5 min, after bicarbonate (25 mM) and PGE2 (10 μM) 5 min at 37° C.
Experimental: Cysteamine facilitates clearance of mucin released over the luminal airway surface. Porcine airways were incubated in the presence of buffer containing bicarbonate (25 mM) and PGE2 (10 μM) for 5 min at 37° C. Thereafter, airways were subsequently incubated in the presence or absence of Cysteamine (200 μM) for an additional 5 min. Airways, were harvested and processed for histological analysis.
(§1) Biological specimens: Isolated native porcine airways were used as experimental model. Sections of open trachea tissue (approx. 2 cm^2) were carefully rinsed and cover small volume of NaHCO3-Ringer solution. Mucus secretion was stimulated with Prostaglandin E2 (PGE2, 10−6 M). Secreted mucus over the dissected open airways was carefully collected, aliquoted and immediately frozen at −80° C.

[2] = tested on: porcine gastric mucin extract (50 kDa band matched to Muc5ac mucin); assay: Mucolytic activity on gastric mucin (electrophoresis, Coomassie stain); format: biochemical; details: summary of FIG. 7 and FIG. 8
Experimental: FIG. 7 presents the effects of cysteamine bitartrate and compound 646 on porcine gastric mucin extract. One hundred microliters of gastric mucin extract (5 mg/mL) was incubated with and without cysteamine bitartrate and compound 646 separately, at 37° C. for 60 minutes.
Gastric Mucin extract solution: Mucin was prepared as stock solution of 5 mg/mL in water, in NaCl Ringer (150 mM Na^+, 4.6 mM K^+, 1 mM Ca^2+, 1 mM Mg^2+, 150 mM Cl^−, 2.5 mM PO4^x− and 10 mM glucose) pH 7.2, and in HCO3-Ringer solution (150 mM Na^+, 4.6 mM K^+, 1 mM Ca^2+, 1 mM Mg^2+, […] HCO3^−, 2.5 mM PO4^x− and 10 mM glucose) pH 8.
(§2) Mucolytic activity on gastric mucin. One hundred microliters of mucin solution were incubated with Cysteamine bitartrate or compound 646 at final concentrations from 0 to 2 mM as indicated in the text. Mixture was incubated at 37° C. for 0-1 hr. Mucolytic activity was ended with 30 microliters of SDS-sample buffer solution. Forty-five microliters of each sample/well were separated in an electrophoresis gel 4-12% Tris-Glycine. After electrophoresis gels were stained with Coomassie Blue solution.
In vitro mucolytic activity of cysteamine bitartrate and compound 646. To evaluate the mucolytic activity of cysteamine bitartrate and 2-aminoethane-1-d-1-thiol hydrochloride (Compound 646), gastric mucin extract was used as a substrate that was treated with 200 and 400 μM of cysteamine bitartrate or Compound 646 respectively.
Mass spectrometry analysis of the isolated 50 kDa protein band. Muc5ac and Muc6 mucins are two major secretory mucins found in the stomach. In order identify which of these mucins were part of the 50 kDa band, mass spectrometry was utilized. Mass spectrometry analysis of the 50 kDa protein band identified 17 unique peptides that matched with porcine Muc5ac mucin.

porcine airway mucus = assay: Mucolytic activity on porcine airway mucin (electrophoresis, Coomassie stain); format: biochemical; details: summary of FIG. 10
Experimental: FIG. 9 presents the effect of compound 646 on porcine airway mucus. Mucus collected from porcine upper airways diluted in NaHCO3-Ringer, was treated with different concentrations of compound 646 (0, 0.25. 0.5 and 1 mM), for 60 minutes at 37° C. In lane 1, representative protein pattern after electrophoresis protein separation of untreated porcine airway mucus (40 μg/well).
Airway mucus supernatant diluted in NaHCO3-Ringer was treated with or without cysteamine bitartrate under basic and acidic conditions at 37° C. for 60 minutes.
as §1
as §2, with “porcine airway mucin:” for “gastric mucin.”, “collected porcine airway supernatant was” for “mucin solution were”, “text.” for “text. Mixture was incubated at 37° C. for 0-1 hr.”, “45” for “Forty-five”
Mucolytic activity of synthetic compound 646. Respiratory airway mucus contained Muc5aC and Muc5B mucins. In order to determine whether compound 646 be used as a mucolytic agent for respiratory airways, supernatant of mucus collected from porcine airways was treated with compound 646 at different concentration (0-1 mM) for 1 h at 37° C.
Mucolytic activity of cysteamine bitartrate under basic and acidic conditions. To validate whether mucolytic activity of cysteamine bitartrate depends on changes of pH, airway mucus supernatant was incubated for 1 h at 37° C. with or without 2 mM cysteamine bitartrate diluted in NaHCO3. An additional airway mucus sample was treated with cysteamine bitartrate and supplemented with 4 μL of 0.1 N of acetic solution pH 4.5. […] The reduction, however, was approximately half of the decrease seen under acidic conditions.

Porcine mucin 15% (W/V) = assay: Mucolytic activity: mucin viscosity by volume displaced through Pasteur pipette; format: biochemical; details: 10 mg/mL, Ringer buffer with bicarbonate (25 mM), 4 hours at 37° C.; versus without cysteamine
Experimental: Porcine mucin 15% (W/V) was incubated in Ringer buffer solution containing bicarbonate (25 mM) in the presence (+) or absence (−) of Cysteamine bitartrate (10 mg/mL), for 4 h at 37° C. Thereafter, equal volume of mucin solution from each condition were aspirated separately in a sterile Pasteur pipette. Changes in mucin viscosity was measured by the rapidity of the volume displaced toward the bottom of the pipette, as indicated in each panel (0-12 seconds). […] Porcine mucin 15% (W/V) was incubated in Ringer buffer solution containing bicarbonate (25 mM) in the presence (+) or absence (−) of cysteamine bitartrate (10 mg/mL), for 4 hours at 37° C. Changes in mucin viscosity was determined by the percentage of volume displaced as a function of time (0-12 seconds) through a vertical sterile Pasteur pipette tip at room temperature.

[3] = tested on: mucin extracted from porcine guts; assay: Effects of cysteamine at nM concentrations on mucin extracted from porcine guts; format: biochemical; details: FIG. 11
Source text: FIG. 11 showing the effects of cysteamine at nM concentrations, on mucin extracted from porcine guts.

NCCS [Cysteamine bitartrate, reference compound]
accumulation of viscous mucus and mucociliary clearance (porcine airway): prevented accumulation of viscous mucus and improves mucociliary clearance | mucin clearance on airway surface epithelium [1]: cleared from the luminal surface | anti-mucin effect against gastric mucin, Muc5ac in particular [2]: anti-mucin effect against gastric mucin | influence of acidic conditions on mucolytic effect (porcine airway mucus): enhanced when acidic conditions are used | displaced volume percentage of porcine mucin as a function of time (0-12 seconds) (Porcine mucin 15% (W/V)): noticeably reduced | dose dependence of mucolytic effect [3]: dose dependent
